IC50 data for 23 molecules are collected here from patent publication US9598421B2, “Imidazopyridazine compounds” (Pfizer Inc., priority 2014, dated 2017).

Structures are written as SMILES.

What all share (format): biochemical
One assay has as its target Human PDE4A (Homo sapiens (Human), UniProt P27815). Nature of the assay: PDE4A Scintillation Proximity Assay (SPA), inhibition of enzyme activity. As to conditions: human recombinant enzyme, 1 μM cAMP substrate, 30 min at 25° C., geometric mean of 2-9 determinations unless otherwise indicated, read-out: Human PDE4A FL. A general note: In a scintillation proximity assay essentially only radioactivity close to the scintillant gives light.

The target of a further assay is Human PDE4C (Homo sapiens (Human), UniProt Q08493). Kind of assay: PDE4C Scintillation Proximity Assay (SPA), inhibition of enzyme activity. As to conditions: human recombinant enzyme, 1 μM cAMP substrate, 30 min at 25° C., geometric mean of 2-9 determinations unless otherwise indicated, read-out: Human PDE4C FL.
Another assay concerns the target Human PDE4D (Homo sapiens (Human), UniProt Q08499). Nature of the assay: PDE4D Scintillation Proximity Assay (SPA), inhibition of enzyme activity. The conditions noted are these: human recombinant enzyme, 1 μM cAMP substrate, 30 min at 25° C., geometric mean of 2-9 determinations unless otherwise indicated, read-out: Human PDE4D FL.

Sequence of Human PDE4D (Q08499 186-808): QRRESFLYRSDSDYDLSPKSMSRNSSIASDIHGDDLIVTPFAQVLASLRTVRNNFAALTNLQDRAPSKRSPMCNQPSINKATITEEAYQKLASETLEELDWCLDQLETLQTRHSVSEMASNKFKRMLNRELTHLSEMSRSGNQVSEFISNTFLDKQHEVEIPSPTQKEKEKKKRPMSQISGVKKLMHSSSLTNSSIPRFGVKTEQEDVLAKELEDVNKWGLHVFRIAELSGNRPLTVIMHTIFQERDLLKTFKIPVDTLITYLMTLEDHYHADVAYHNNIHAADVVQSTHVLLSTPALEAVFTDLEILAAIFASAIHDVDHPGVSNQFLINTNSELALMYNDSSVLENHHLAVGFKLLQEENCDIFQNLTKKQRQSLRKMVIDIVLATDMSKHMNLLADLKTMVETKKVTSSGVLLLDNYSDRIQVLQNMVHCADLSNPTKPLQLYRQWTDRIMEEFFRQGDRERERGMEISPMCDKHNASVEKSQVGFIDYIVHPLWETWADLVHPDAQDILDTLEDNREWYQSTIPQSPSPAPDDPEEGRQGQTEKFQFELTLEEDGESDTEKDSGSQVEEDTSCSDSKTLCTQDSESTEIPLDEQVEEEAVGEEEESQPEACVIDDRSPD
Sequence of Human PDE4C (Q08493 2-712): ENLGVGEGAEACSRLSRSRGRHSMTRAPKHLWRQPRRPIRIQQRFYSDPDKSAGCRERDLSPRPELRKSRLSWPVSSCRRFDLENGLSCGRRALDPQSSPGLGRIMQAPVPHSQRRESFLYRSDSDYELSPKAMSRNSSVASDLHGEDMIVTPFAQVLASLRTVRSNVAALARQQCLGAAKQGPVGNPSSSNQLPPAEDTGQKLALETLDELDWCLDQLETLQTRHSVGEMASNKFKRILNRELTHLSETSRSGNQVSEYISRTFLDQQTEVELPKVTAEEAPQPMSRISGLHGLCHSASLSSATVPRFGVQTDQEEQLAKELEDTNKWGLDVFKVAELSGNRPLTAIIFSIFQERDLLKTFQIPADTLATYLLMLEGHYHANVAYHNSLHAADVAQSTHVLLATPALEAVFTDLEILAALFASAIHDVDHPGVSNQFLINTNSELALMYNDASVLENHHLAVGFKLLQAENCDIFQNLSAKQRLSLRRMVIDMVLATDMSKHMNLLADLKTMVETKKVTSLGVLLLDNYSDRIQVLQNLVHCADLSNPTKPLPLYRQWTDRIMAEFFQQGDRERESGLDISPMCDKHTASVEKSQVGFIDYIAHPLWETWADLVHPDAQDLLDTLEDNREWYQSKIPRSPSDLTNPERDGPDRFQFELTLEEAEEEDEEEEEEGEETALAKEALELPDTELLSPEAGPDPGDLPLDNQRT
Sequence of Human PDE4A (P27815 other isoform, or with tags, fused parts or gaps): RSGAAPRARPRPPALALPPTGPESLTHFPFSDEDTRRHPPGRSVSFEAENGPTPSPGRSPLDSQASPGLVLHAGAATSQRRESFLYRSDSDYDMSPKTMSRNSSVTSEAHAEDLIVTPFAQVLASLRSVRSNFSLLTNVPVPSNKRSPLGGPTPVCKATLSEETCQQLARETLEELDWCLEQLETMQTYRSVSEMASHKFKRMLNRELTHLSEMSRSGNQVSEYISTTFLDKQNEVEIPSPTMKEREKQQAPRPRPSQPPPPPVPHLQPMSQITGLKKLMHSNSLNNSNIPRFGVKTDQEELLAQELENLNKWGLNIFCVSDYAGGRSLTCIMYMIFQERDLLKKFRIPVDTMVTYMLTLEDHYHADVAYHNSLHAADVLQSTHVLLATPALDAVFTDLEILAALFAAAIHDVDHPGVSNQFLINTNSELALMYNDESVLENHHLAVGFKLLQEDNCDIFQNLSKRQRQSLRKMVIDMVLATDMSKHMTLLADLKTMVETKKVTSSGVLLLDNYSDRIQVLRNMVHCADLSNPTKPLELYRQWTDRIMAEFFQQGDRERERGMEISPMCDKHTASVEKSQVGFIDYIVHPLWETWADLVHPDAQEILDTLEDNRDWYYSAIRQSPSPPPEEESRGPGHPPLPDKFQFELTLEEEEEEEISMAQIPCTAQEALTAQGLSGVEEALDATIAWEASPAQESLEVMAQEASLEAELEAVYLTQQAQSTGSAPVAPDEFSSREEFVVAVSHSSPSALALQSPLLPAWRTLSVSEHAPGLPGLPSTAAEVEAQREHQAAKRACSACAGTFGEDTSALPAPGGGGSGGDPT
Description for Human PDE4A: (§1) The PDE4A3, PDE4B1, PDE4C1 and PDE4D3 assays use the Scintillation Proximity Assay (SPA) technology to measure the inhibition of human recombinant PDE4A1, PDE4B3, PDE4C1, and PDE4D3 enzyme activity by compounds in vitro. The PDE4A1, PDE4B3, PDE4C1, and PDE4D3 assays are run in parallel using identical parameters, except for the concentration of enzyme (80 pM PDE4A3, 40 pM PDE4B3, 40 pM PDE4C1 and 10 pM PDE4D). […] Reactions are incubated for 30 min at 25° C. The addition of 20 uL of 8 mg/ml yitrium silicate SPA beads (Perkin Elmer) stops the reaction. The plates are sealed (TopSeal, Perkin Elmer) and the beads are allowed to settle for 8 hrs, after which they are read on the Trilux Microbeta overnight.
Description for Human PDE4C: as §1

For `Cc1cc(-c2c(C(=O)N3CCC3)nc3cccnn23)c(F)cc1C#N` [Example 18, 4-[2-(azetidin-1-ylcarbonyl)imidazo[1,2-b]pyridazin-3-yl]-5-fluoro-2-methylbenzonitrile], the IC50 turned out to be 55 nM at Human PDE4A, 147 nM on Human PDE4C and 8200 nM at Human PDE4D.

As to `Cc1cc(C#N)c(F)cc1-c1c(C(=O)N2CCC2)nc2cccnn12` [Example 20, 4-[2-(azetidin-1-ylcarbonyl)imidazo[1,2-b]pyridazin-3-yl]-2-fluoro-5-methylbenzonitrile], the IC50 amounted to 6.7 nM at Human PDE4A, 74.8 nM at Human PDE4C and 490 nM on Human PDE4D.

As for `O=C(NC1CC1)c1nc2cccnn2c1-c1ccc2ccnn2c1` [Example 22, N-cyclopropyl-3-(pyrazolo[1,5-a]pyridin-6-yl)imidazo[1,2-b]pyridazine-2-carboxamide], the IC50 turned out to be 27.6 nM at Human PDE4A, 71.2 nM at Human PDE4C and 1890 nM at Human PDE4D.

Take `N#Cc1ccc(-c2c(C(=O)N3CCC3)nc3cccnn23)cc1F` [Example 23, 4-[2-(azetidin-1-ylcarbonyl)imidazo[1,2-b]pyridazin-3-yl]-2-fluorobenzonitrile]: the IC50 on Human PDE4A came out at 15.1 nM; at Human PDE4C, 45.8 nM; at Human PDE4D, 4130 nM.

With `N#Cc1cc(F)c(-c2c(C(=O)N3CCC3)nc3cccnn23)cc1F` [Example 24, 4-[2-(azetidin-1-ylcarbonyl)imidazo[1,2-b]pyridazin-3-yl]-2,5-difluorobenzonitrile], the IC50 was 5.04 nM on Human PDE4A, 59.7 nM at Human PDE4C and more than 2150 nM at Human PDE4D.

With `CNC(=O)c1nc2cccnn2c1-c1cc(F)c(Cl)cc1C` [Example 25, 3-(4-chloro-5-fluoro-2-methylphenyl)-N-methylimidazo[1,2-b]pyridazine-2-carboxamide], the IC50 at Human PDE4A was determined as 38.6 nM; at Human PDE4C, 150 nM; at Human PDE4D it was 4970 nM.

Take `CCCNC(=O)c1nc2cccnn2c1-c1ccc(Cl)cc1` [Example 26, 3-(4-chlorophenyl)-N-propylimidazo[1,2-b]pyridazine-2-carboxamide]: the values for the IC50 on Human PDE4A, at Human PDE4C and on Human PDE4D were 85.5 nM, 111 nM and 3800 nM, respectively.

As for `CCCNC(=O)c1nc2cccnn2c1-c1cc(Cl)cc(Cl)c1` [Example 28, 3-(3,5-dichlorophenyl)-N-propylimidazo[1,2-b]pyridazine-2-carboxamide], the IC50 turned out to be 15.6 nM on Human PDE4A, 49 nM at Human PDE4C and 393 nM at Human PDE4D.

With `CCCNC(=O)c1nc2cccnn2c1-c1ccc(Cl)c(F)c1` [Example 29, 3-(4-chloro-3-fluorophenyl)-N-propylimidazo[1,2-b]pyridazine-2-carboxamide], the IC50 was found to be 3.48 nM on Human PDE4A, 13.8 nM on Human PDE4C and 409 nM at Human PDE4D.

With `CC1CC1NC(=O)c1nc2cccnn2c1-c1ccc(Cl)cc1` (stereo not drawn) [Example 30, 3-(4-chlorophenyl)-N-(2-methylcyclopropyl)imidazo[1,2-b]pyridazine-2-carboxamide], the IC50 came to 11.6 nM at Human PDE4A, 24.5 nM at Human PDE4C and 4000 nM at Human PDE4D.

`COC1CN(C(=O)c2nc3cccnn3c2-c2ccc(Cl)cc2)C1` [Example 31, [3-(4-chlorophenyl)imidazo[1,2-b]pyridazin-2-yl](3-methoxyazetidin-1-yl)methanone]: the IC50 was 2820 nM at Human PDE4A, 5810 nM on Human PDE4C and less than 26200 nM at Human PDE4D.

Regarding `CN(C(=O)c1nc2cccnn2c1-c1ccc(Cl)cc1)C1CC1` [Example 32, 3-(4-chlorophenyl)-N-cyclopropyl-N-methylimidazo[1,2-b]pyridazine-2-carboxamide], the IC50 at Human PDE4A was 1030 nM; at Human PDE4C, 469 nM; at Human PDE4D, more than 30000 nM.

As to `CC1(NC(=O)c2nc3cccnn3c2-c2ccc(Cl)cc2)CC1` [Example 33, 3-(4-chlorophenyl)-N-(1-methylcyclopropyl)imidazo[1,2-b]pyridazine-2-carboxamide], the IC50 on Human PDE4A came out at 58.6 nM; at Human PDE4C, 127 nM; on Human PDE4D, 2330 nM.

Take `O=C(NC1CC1)c1nc2cccnn2c1-c1cc(F)cc(Cl)c1` [Example 35, 3-(3-chloro-5-fluorophenyl)-N-cyclopropylimidazo[1,2-b]pyridazine-2-carboxamide]: the IC50 came out at 35.7 nM on Human PDE4A, 37 nM at Human PDE4C and 1220 nM at Human PDE4D.

Regarding `O=C(NC1CC1)c1nc2cccnn2c1-c1cccc(Cl)c1` [Example 36, 3-(3-chlorophenyl)-N-cyclopropylimidazo[1,2-b]pyridazine-2-carboxamide], the IC50 at Human PDE4A came out at 23.7 nM; on Human PDE4C it was 21 nM; on Human PDE4D, 254 nM.

For `O=C(NC12CC(C1)C2)c1nc2cccnn2c1-c1ccc(Cl)cc1` [Example 37, N-(bicyclo[1.1.1]pent-1-yl)-3-(4-chlorophenyl)imidazo[1,2-b]pyridazine-2-carboxamide], the IC50 amounted to 127 nM on Human PDE4A, 161 nM at Human PDE4C and 2570 nM at Human PDE4D.

As to `O=C(NC1CC1)c1nc2cccnn2c1-c1ccc2ocnc2c1` [Example 39, 3-(1,3-benzoxazol-5-yl)-N-cyclopropylimidazo[1,2-b]pyridazine-2-carboxamide], the IC50 at Human PDE4A came out at 14.8 nM; at Human PDE4C, 67.8 nM; on Human PDE4D, 3820 nM.

With `O=C(NC1CC1)c1nc2cccnn2c1-c1ccc(Cl)cc1F` [Example 40, 3-(4-chloro-2-fluorophenyl)-N-cyclopropylimidazo[1,2-b]pyridazine-2-carboxamide], the IC50 was determined as 19.6 nM on Human PDE4A, 58.1 nM on Human PDE4C and 9020 nM on Human PDE4D.

`O=C(NC1CC1)c1nc2cccnn2c1-c1ccnc(C(F)(F)F)c1` [Example 42, N-cyclopropyl-3-[2-(trifluoromethyl)pyridin-4-yl]imidazo[1,2-b]pyridazine-2-carboxamide]: the values for the IC50 at Human PDE4A, at Human PDE4C and on Human PDE4D were 415 nM, 357 nM and less than 12200 nM, respectively.

With `O=C(N[C@@H]1C[C@@H]1F)c1nc2cccnn2c1-c1ccc(Cl)cc1` [Example 46, 3-(4-chlorophenyl)-N-[(1R,2S)-2-fluorocyclopropyl]imidazo[1,2-b]pyridazine-2-carboxamide], the values for the IC50 at Human PDE4A, on Human PDE4C and at Human PDE4D were 15.2 nM, 39.3 nM and 971 nM, respectively.

In the case of `O=C(c1nc2cccnn2c1-c1cc(F)c(Cl)c(F)c1)N1CCC1` [Example 47, azetidin-1-yl[3-(4-chloro-3,5-difluorophenyl)imidazo[1,2-b]pyridazin-2-yl]methanone], the IC50 at Human PDE4A is 7.37 nM; on Human PDE4C, 23.9 nM; at Human PDE4D, 334 nM.

Take `CCCNC(=O)c1nc2cccnn2c1-c1cncc(Cl)c1` [Example 48, 3-(5-chloropyridin-3-yl)-N-propylimidazo[1,2-b]pyridazine-2-carboxamide]: the IC50 on Human PDE4A was 768 nM; on Human PDE4C, 212 nM; at Human PDE4D, more than 7670 nM.

Consider `O=C(c1nc2cccnn2c1-c1ccc2c(c1)CCO2)N1CCC1` [Example 50, azetidin-1-yl[3-(2,3-dihydro-1-benzofuran-5-yl)imidazo[1,2-b]pyridazin-2-yl]methanone], for which the IC50 at Human PDE4A was 28.1 nM; at Human PDE4C, 235 nM; on Human PDE4D it was 3140 nM.
